Source: patent US12516022B2, “Derivatives of aryl hydrocarbon receptor agonists” (AZORA THERAPEUTICS, INC., priority 2021, dated 2026)

How the values were obtained:
[1] = test system: dextran sodium sulfate (DSS)-induced acute colitis; test: DSS-induced acute colitis mouse model, Compound 8 (Example 6); type: in vivo, C57 BL/6J mice; conditions: mice, 2 mg/kg/day oral gavage twice daily, 9 day test period
Description: Eight week old female C57 BL/6J mice, around 20 g body weight purchased from Charles River Laboratories were bred in specific pathogen free IVC cages (4 mice in each cage) in a temperature controlled (20±2° C.) room with a 12 hour light-dark cycle. Chow pellets and tap water were available ad libitum. All experimental protocols were approved by the Institutional Animal Care and Use Committee. The mice were acclimated at the animal facility for at least of three days before the experiments.
To generate dextran sodium sulfate (DSS)-induced acute colitis, the mice were induced with 3% DSS (molecular weight 36,000-50,000; MP Biomedicals, Santa Ana, CA, USA) in their drinking water for 7 consecutive days, and then switched to normal water. DSS solution was freshly prepared and changed daily. These mice were euthanized on day 8 (9th day of the experiment).
The mice were divided into groups with eight mice in each group. Mice were dosed with either 2 mg/kg/day Compound 8, twice daily in 200 μL distilled water (pH=7.0) by gavage from Day 0 to Day 9. Mice in the vehicle group were given only 200 μL distilled water by gavage.
Body weight and disease activity index (DAI) soring were recorded daily to assess the colitis. DAI score was the sum of the weight loss score, stool score and bleeding subscores. A blinded scoring system was employed to assess the colitis. […]

[2] = biological target: T1, AhR (Rattus norvegicus, UniProt P41738); test: AhR/arnt-luciferase reporter assay in rat H4IIE cells
T1 sequence (P41738 10-853): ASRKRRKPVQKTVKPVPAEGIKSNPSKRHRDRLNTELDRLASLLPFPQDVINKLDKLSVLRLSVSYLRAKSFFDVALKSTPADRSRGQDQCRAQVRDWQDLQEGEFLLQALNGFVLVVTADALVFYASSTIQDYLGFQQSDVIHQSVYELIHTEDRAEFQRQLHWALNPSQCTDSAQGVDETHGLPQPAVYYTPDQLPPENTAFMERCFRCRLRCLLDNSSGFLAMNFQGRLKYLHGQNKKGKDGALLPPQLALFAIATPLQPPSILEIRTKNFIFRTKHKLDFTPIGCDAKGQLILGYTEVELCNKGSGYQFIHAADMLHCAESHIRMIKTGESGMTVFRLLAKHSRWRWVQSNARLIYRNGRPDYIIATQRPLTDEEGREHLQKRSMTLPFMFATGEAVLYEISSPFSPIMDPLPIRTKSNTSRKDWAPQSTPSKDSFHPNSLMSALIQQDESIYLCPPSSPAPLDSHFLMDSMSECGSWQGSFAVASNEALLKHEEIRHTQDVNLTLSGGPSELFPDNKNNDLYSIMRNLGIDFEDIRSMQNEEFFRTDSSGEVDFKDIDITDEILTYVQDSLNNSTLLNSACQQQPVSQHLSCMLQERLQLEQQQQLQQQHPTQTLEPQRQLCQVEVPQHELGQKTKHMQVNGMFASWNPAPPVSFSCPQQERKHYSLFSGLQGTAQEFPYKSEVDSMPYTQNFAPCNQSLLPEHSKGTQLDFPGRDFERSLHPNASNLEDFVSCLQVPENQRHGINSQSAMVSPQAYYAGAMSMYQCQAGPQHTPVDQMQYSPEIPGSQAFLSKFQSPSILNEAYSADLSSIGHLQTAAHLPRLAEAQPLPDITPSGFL
Description: (§1) TCDD and MeBio were included in the study as positive controls. These were added into cell culture media containing charcoal-stripped fetal bovine serum to produce a 2× stock and then added to the reporter cells. The reporter cells were human Huh7 cells or Rat H4IIE cell lines with the native AhR and an AhR/arnt-Luciferase reporter vector. The final concentration of DM50 was 0.1%. Cells were incubated for 22 hours at 37° C. prior to addition of the luciferase detection reagent and measurement of activity in relative luminescence units.

[3] = biological target: T2, AhR (Homo sapiens, UniProt P35869); test: AhR/arnt-luciferase reporter assay in human Huh7 cells
T2 sequence (P35869 11-848): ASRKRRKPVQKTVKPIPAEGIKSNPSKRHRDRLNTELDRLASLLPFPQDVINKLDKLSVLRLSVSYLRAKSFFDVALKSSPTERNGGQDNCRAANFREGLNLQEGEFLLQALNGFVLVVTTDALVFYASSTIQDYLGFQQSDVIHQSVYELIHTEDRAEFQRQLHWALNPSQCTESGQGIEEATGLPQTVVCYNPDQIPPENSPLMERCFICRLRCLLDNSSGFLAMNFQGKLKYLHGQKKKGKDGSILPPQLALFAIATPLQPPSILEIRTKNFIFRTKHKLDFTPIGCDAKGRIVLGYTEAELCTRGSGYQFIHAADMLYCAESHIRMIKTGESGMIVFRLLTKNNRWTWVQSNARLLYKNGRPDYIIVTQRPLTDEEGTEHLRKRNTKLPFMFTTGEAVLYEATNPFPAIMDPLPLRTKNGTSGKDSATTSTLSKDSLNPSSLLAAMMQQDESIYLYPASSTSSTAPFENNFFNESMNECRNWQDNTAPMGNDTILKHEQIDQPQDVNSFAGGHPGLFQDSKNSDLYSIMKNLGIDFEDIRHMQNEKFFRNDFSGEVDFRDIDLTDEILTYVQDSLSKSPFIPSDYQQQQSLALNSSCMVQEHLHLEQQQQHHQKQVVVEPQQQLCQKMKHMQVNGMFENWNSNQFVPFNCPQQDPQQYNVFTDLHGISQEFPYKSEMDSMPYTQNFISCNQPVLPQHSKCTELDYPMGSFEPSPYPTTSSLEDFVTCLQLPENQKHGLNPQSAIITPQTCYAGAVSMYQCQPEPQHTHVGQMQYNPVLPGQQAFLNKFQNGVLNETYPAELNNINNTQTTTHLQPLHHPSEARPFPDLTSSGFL
Description: as §1

O=C1/C(=C2/C(=O)N(CO)c3ccccc32)Nc2ccccc21 [Compound 8]
Disease activity index (DAI) versus placebo [1]: lower disease activity index | EC50 [2]: 25.6 nM | EC50 [3]: 71.5 nM | Activation of the AhR compared with equimolar synthetic indirubin ([3]; human Huh7 and rat H4IIE cells): activates the AhR to an equal or greater extent, and at the same or lower concentration, than an equimolar amount of synthetic indirubin | EC50 greater than the EC50 for indirubin ([3]; human Huh7 cells): about 20%
